In US6635802B1, “Nuclear transfer using cells cultured in serum starvation media containing apoptosis inhibitors” (The Texas A&M University System, priority 2000, dated 2003):

B1: α2-macroglobulin (protein, UniProt P01023 24-1474, looked up)
Alpha-2-macroglobulin: SVSGKPQYMVLVPSLLHTETTEKGCVLLSYLNETVTVSASLESVRGNRSLFTDLEAENDVLHCVAFAVPKSSSNEEVMFLTVQVKGPTQEFKKRTTVMVKNEDSLVFVQTDKSIYKPGQTVKFRVVSMDENFHPLNELIPLVYIQDPKGNRIAQWQSFQLEGGLKQFSFPLSSEPFQGSYKVVVQKKSGGRTEHPFTVEEFVLPKFEVQVTVPKIITILEEEMNVSVCGLYTYGKPVPGHVTVSICRKYSDASDCHGEDSQAFCEKFSGQLNSHGCFYQQVKTKVFQLKRKEYEMKLHTEAQIQEEGTVVELTGRQSSEITRTITKLSFVKVDSHFRQGIPFFGQVRLVDGKGVPIPNKVIFIRGNEANYYSNATTDEHGLVQFSINTTNVMGTSLTVRVNYKDRSPCYGYQWVSEEHEEAHHTAYLVFSPSKSFVHLEPMSHELPCGHTQTVQAHYILNGGTLLGLKKLSFYYLIMAKGGIVRTGTHGLLVKQEDMKGHFSISIPVKSDIAPVARLLIYAVLPTGDVIGDSAKYDVENCLANKVDLSFSPSQSLPASHAHLRVTAAPQSVCALRAVDQSVLLMKPDAELSASSVYNLLPEKDLTGFPGPLNDQDNEDCINRHNVYINGITYTPVSSTNEKDMYSFLEDMGLKAFTNSKIRKPKMCPQLQQYEMHGPEGLRVGFYESDVMGRGHARLVHVEEPHTETVRKYFPETWIWDLVVVNSAGVAEVGVTVPDTITEWKAGAFCLSEDAGLGISSTASLRAFQPFFVELTMPYSVIRGEAFTLKATVLNYLPKCIRVSVQLEASPAFLAVPVEKEQAPHCICANGRQTVSWAVTPKSLGNVNFTVSAEALESQELCGTEVPSVPEHGRKDTVIKPLLVEPEGLEKETTFNSLLCPSGGEVSEELSLKLPPNVVEESARASVSVLGDILGSAMQNTQNLLQMPYGCGEQNMVLFAPNIYVLDYLNETQQLTPEIKSKAIGYLNTGYQRQLNYKHYDGSYSTFGERYGRNQGNTWLTAFVLKTFAQARAYIFIDEAHITQALIWLSQRQKDNGCFRSSGSLLNNAIKGGVEDEVTLSAYITIALLEIPLTVTHPVVRNALFCLESAWKTAQEGDHGSHVYTKALLAYAFALAGNQDKRKEVLKSLNEEAVKKDNSVHWERPQKPKAPVGHFYEPQAPSAEVEMTSYVLLAYLTAQPAPTSEDLTSATNIVKWITKQQNAQGGFSSTQDTVVALHALSKYGAATFTRTGKAAQVTIQSSGTFSSKFQVDNNNRLLLQQVSLPELPGEYSMKVTGEGCVYLQTSLKYNILPEKEEFPFALGVQTLPQTCDEPKAHTSFQISLSVSYTGSRSASNMAIVDVKMVSGFIPLKPTVKMLERSNHVSRTEVSSNHVLIYLDKVSNQTLSLFFTVLQDVPVRDLKPAIVKVYDYYETDEFAIAEYNAPCSKDLGNA

Legend:
porcine PGCs = experiment: In vitro culture of porcine PGCs on STO feeder cells with apoptosis inhibitors; AP-stained colonies counted; type: cell-based; conditions: for Effect of timing of exposure on number of colonies, in words: all 8 days vs first 4 days vs last 4 days
Text: Porcine fetuses were collected from hysterectomized uteri of four-way crossbred gilts (DeKalb, Ill.) between day 25 and 30 of pregnancy (estrus=day 0). Fetuses were washed in phosphate buffered saline supplemented with BSA (0.4%, Sigma St. Louis, Mo.) and penicillin/streptomycin (1%, Gibco BRL, Rockville, Md.) (PBS/BSA/PS). Urogenital ridges, appeared as longitudinal protrusions along the medial mesonephric surface, were isolated and washed in PBS/BSA/PS followed by several washes in PES medium before PGC collection. The PES medium was comprised of 50:50 mixture of Dulbecco's modified Eagle's medium (DMEM) and Ham's F10 medium supplemented with 15% fetal bovine serum (FBS), L-glutamine (2 mM), β-mercaptoethanol (0.1 mM), MEM non-essential amino acids (1%) and penicillin/streptomycin (1%). All media and supplements were purchased from Gibco BRL.
PGCs were isolated by incubation in 0.25% trypsin/1 mM EDTA solution (Gibco BRL) followed by gentle pipetting or by mechanical dissociation of ridges into small fragments followed by gentle pipetting. After tissue disruption, cells were centrifuged for 5 minutes at 250 rpm to remove tissue debris and clumps. The supernatant containing most the single cells was collected and centrifuged at 1000 rpm for 10 minutes.
PGCs were resuspended with PES medium containing cytokines, such as soluble recombinant human stem cell factor (SCF; 40 ng/ml), human basic fibroblast growth factor (bFGF; 20 ng/ml), and human leukemia inhibitory factor (LIF; 20 ng/ml). All cytokines were obtained from R&D Systems (Minneapolis, Minn.). Cell suspensions were plated on irradiated mouse STO feeder cells (3×10^6 cells per 35 mm well), prepared as previously described (Piedrahita et al., 1998) and cultured in humidified environment of 5% CO2 in air, 38° C. PGC-derived colonies with ES-like morphology after 7-10 days of culture are passaged to fresh feeders for establishment of cell lines. PGC-derived colonies were dissociated with 0.25% trypsin/1 mM EDTA (Gibco BRL) for 10 minutes. […] To identify PGC-derived cells and the state of differentiation were determined by morphology and by expression of alkaline phosphatase (AP).
AP activity was determined as described previously (Moore and Piedrahita, 1997). Briefly, culture plates were rinsed twice in PBS and fixed in 4% formaldehyde in PBS for 15 minutes at room temperature. Fixed cells were washed twice with PBS and stained in naphtol AS-MX phosphate (200 μg/ml; Sigma) and Fast Red TR salt (1 mg/ml; Sigma) in 100 mM Tris buffer, pH 8.2 for 30 minutes at room temperature. Staining was terminated by washing cultures in PBS. Specificity of AP activity was determined by staining in the presence of the AP inhibitor, tetramisole (500 μM; Sigma). Mouse ES cells also were stained as control for AP activity.
To determine the effect of apoptosis inhibitors on survival of porcine PGCs in vitro, freshly isolated PGCs were cultured as described above with or without apoptosis inhibitors, α2-macroglobulin (MAC: broad range protease inhibitor, 1.4 pM) and N-acetylcysteine (NAC: antioxidant, 1 mM). After 7-10 days of culture, colonies were stained for AP activity and counted. Studies were performed at least three replicates. The data were normalized to the treatment with no inhibitors added (control) and tested for homogeneity of variance and analyzed by ANOVA. Mean separation is accomplished by Fisher's protected LSD using software SuperANOVA (Abacus Concepts).
Dose titration of MAC (0.35, 0.7, 1.4, and 2.8 pM) and NAC (0.25, 0.5, 1.0, and 2.0 mM), to determine the optimal concentration of inhibitors, were performed.

[1] = system: Porcine embryonic fibroblast (PEF); experiment: TUNEL assay (flow cytometry) of serum starved porcine embryonic fibroblasts; type: cell-based; conditions: serum starvation 5 days, MAC 0.7 pM, NAC 1 mM, GSH 2 mM, serum starved without inhibitor 26.50
Text: Porcine embryonic fibroblast (PEF) were isolated from day 25-28 fetuses according to the methods previously described (Hogan et al., 1994). Briefly, porcine fetuses of day 25-30 (day 0=estrus) were removed from the uterus and rinsed with PBS+penicillin/streptomycin solution (PBS/PS). Head, limbs and internal organs were removed, and the carcasses were minced with razor blades or ground using a syringe head until they were the consistency of sludge. Then these were trypsinized 2-3 times using 0.25% trypsin+EDTA for 20 minutes. The supernatant fraction was removed and centrifuged to collect the cells. The cells were plated using DMEM+10% fetal bovine serum (FBS) and cultured up to 80-90% confluency before further passage.
Bovine embryonic fibroblasts (BEF) were isolated from the fetus with 3-5 cm crown-rump length. After two or three passages, cells were plated one million cells per plate (100 mm) with growth medium (DMEM) with 2 mM L-glutamine, 0.1 mM β-mercaptoethanol and 10% FBS. After 24 hours, cells were washed with PBS 3-5 times and then serum starvation medium with 0.5% FBS was added. In addition, cells were treated with serum starvation medium containing apoptosis inhibitors such as a2-macroglobulin (0.7 pM), N-acetylcysteine (1 mM) and glutathione (2 mM). Cells were treated with serum starvation with or without apoptosis inhibitors for 5 or 10 days. Then cells were trypsinized and counted.
After counting, cells were fixed and stained according to protocols with the APO-BRDU kit (Phoenix Flow Systems, San Diego, Calif.). […] To determine base line fluorescence, control cells were incubated without TdT. […] Following counterstaining with a propidium iodide/RNase A solution for 30 minutes in the dark, which allows simultaneous analysis of cell cycle position and apoptosis, cells were analyzed on a FACSCalibur™ flow cytometer (Becton Dickinson, San Jose, Calif.). Fluorescence emissions were measured at 582±21 nm for propidium iodide and 530±15 nm for fluorescein, without spectral compensation, after excitation at 488 nm by an argon-ion laser. […]

| Molecule | Normalized # of Colonies + SE (porcine PGCs; 0.25 mM NAC, normalized to control, Table 2 dose response) | Normalized # of Colonies + SE (porcine PGCs; 0.5 mM NAC, normalized to control, Table 2 dose response) | Normalized # of Colonies + SE (porcine PGCs; 1.0 mM NAC, normalized to control, Table 2 dose response) | Normalized # of Colonies + SE (porcine PGCs; 2.0 mM NAC, normalized to control, Table 2 dose response) | Normalized # of Colonies + SE (porcine PGCs; NAC (1.0 mM) 1-4 days (FH), Table 5 timing study) | Normalized # of Colonies + SE (porcine PGCs; NAC (1.0 mM) 5-8 days (LH), Table 5 timing study) | Normalized # of Colonies + SE (porcine PGCs; NAC (1.0 mM) all 8 days, Table 5 timing study) | Normalized # of Colonies + SE (porcine PGCs; Table 7 antioxidants: NAC 1.0 mM, BHA 0.1 mM, BPN 1.0 mM, CIM 2.0 mM, normalized to control) | Effect of timing of exposure on number of colonies, in words (porcine PGCs) | Concentration of maximal response (number of colonies) over the doses studied (porcine PGCs; doses 0.25-2.0 mM studied) [mM] | 5-day Apoptosis (%) [1] [%] | Normalized # of Colonies + SE (porcine PGCs; 0.35 pM MAC, normalized to control without inhibitor, Table 1 dose response) | Normalized # of Colonies + SE (porcine PGCs; 0.7 pM MAC, normalized to control, Table 1 dose response) | Normalized # of Colonies + SE (porcine PGCs; 1.40 pM MAC, normalized to control, Table 1 dose response) | Normalized # of Colonies + SE (porcine PGCs; 2.8 pM MAC, normalized to control, Table 1 dose response) | Normalized # of Colonies + SE (porcine PGCs; MAC (0.7 pM) all 8 days, Table 4 timing study) | Number of first passage colonies, in words (porcine PGCs; added to the culture media) | Concentration of maximal response (number of colonies) (porcine PGCs; doses 0.35-2.8 pM studied) [pM] | Effect upon second passage, in words (porcine PGCs; independent of previous culture in the presence of the molecule) | Effect on the number of PGCs, in words (porcine PGCs; single concentrations of Tables 6 and 7) |
| --- | --- | --- | --- | --- | --- | --- | --- | --- | --- | --- | --- | --- | --- | --- | --- | --- | --- | --- | --- | --- |
| CC(=O)N[C@@H](CS)C(=O)O [NAC, N-acetylcysteine] | 1.23 ± 0.14 | 1.75 ± 0.13 | 2.07 ± 0.19 | 2.21 ± 0.04 | 2.86 ± 0.55 | 1.01 ± 0.035 | 2.64 ± 0.49 | 1.93 ± 0.10 | Addition at later days has little effect | 2.0 | 0.06 | – | – | – | – | – | – | – | – | – |
| B1 | – | – | – | – | – | – | – | – | maximal effects result when MAC is present throughout the incubation period | – | 11.60 | 1.43 ± 0.03 | 1.90 ± 0.08 | 1.50 ± 0.01 | 1.16 ± 0.06 | 1.64 ± 0.08 | increased the number of first passage colonies | 0.7 | protective effect | induced the most, and significantly, positive effect |
